Data from US11524041B2, “Ginkgo diterpene lactone composition” (Jiangsu Kanion Pharmaceutical Co., Ltd., priority 2017, dated 2022).
Where a name gives a salt, the structure may show the parent alone.

Columns and labels:
Format in all cases: in vivo
[1] = system: rats; assay: Electric shock avoidance experiment for rats (learned helplessness electric shock model); details: compositions 6.26 mg/kg ig, imipramine 33 mg/kg oral, once a day for 35 days, results of the fifth training, X ± S
Text: 2.3 Electric shock avoidance experiment for rats: The anti-depression effect of the drug was observed using a learned helplessness electric shock model. Healthy male rats weighing 180-220 g were selected and randomly divided into normal group, model group, positive drug group and Ginkgo diterpene lactone composition groups A-K, with 10 rats in each group. The rats in the […] were orally administered with the same normal saline every day; the rats in the positive drug group were orally administered with imipramine tablet in a daily dose of 33 mg/kg, and the rats in the Ginkgo diterpene lactone composition groups A-K were administered in a daily dose of 6.26 mg/kg (ig), once a day for 35 consecutive days. The experiment was started 30 minutes after the 30th administration. On the first day of the experiment, “helpless induction” was performed. […] The training was conducted for 5 days, and the number of successful escapes of each rat during training was recorded every day, and the results of the fifth training were counted.
(§1) 2.4 Statistical analysis: The data are expressed as (x±s). All data are analyzed by one-way ANOVA using SPSS 19.0 software to determine the significance of the difference.

[2] = system: mice; assay: Forced swimming experiment for mice; details: compositions 9 mg/kg ig, imipramine 50 mg/kg oral, once a day for 5 days, difference of immobility times, X ± S
Protocol: 2.2 Forced swimming experiment for mice: Male mice weighing 20-24 g were selected, grouped and administered in the same manner as in Section 2.1. The experiment was started 30 minutes after the fifth administration. The mice were placed in a graduated cylinder (20 cm in height and 14 cm in diameter) with 30° C. water in the depth of 10 cm. The difference between the two immobility times of the mice themselves were calculated and then statistical analysis was conducted after Ig (X++45) conversion.
as §1

[3] = system: level of oxidative stress of rats; assay: Detection of oxidative stress in serum of rats given alcohol; details: rat serum, alcohol 6 g/kg daily, compositions 3 mg/kg iv, edaravone 6.25 mg/kg iv, daily for 5 weeks, n = 10
Protocol: 2.1 Modeling and administration: Healthy male rats were selected and randomly divided into normal group, model group, positive drug group and Ginkgo diterpene lactone composition groups A-K, With the exception of the normal group, the other groups were orally administrated with alcohol with a daily dose of 6 g/kg. Rats in the positive drug group were administrated with edaravone injection (iv) in a daily dose of 6.25 mg/kg, and rats in the Ginkgo diterpene lactone composition groups A-K were administrated in a daily dose of 3 mg/kg (iv), they were continuously administrated or given alcohol for 5 weeks.
2.2 Detection of oxidative stress: After the administration, rats in each group were anesthetized with 10% chloral hydrate, abdominal aortic blood was collected and then subjected to heparin anticoagulation to separate serum; changes of MDA, SOD, GSH and TAC levels in the serum were detected according to the instructions of the kits, and the protein content of each sample was measured using the BCA protein test kit.
2.3 Statistical analysis: The data are expressed as (x±s). All data are analyzed by one-way ANOVA using SPSS 19.0 software to determine the significance of the difference.

[4] = n = 10, listed as imipramine, hydrochloride

SMILES | Accumulative number of successful escapes ([1]; n = 10, hydrochloride) | Accumulative number of successful escapes [1, 4] | Swimming interval (X + 45) conversion ([2]; n = 10, hydrochloride) | Swimming interval (X + 45) conversion [2, 4] | MDA [3] [nmol/mg] | SOD [3] [U/mg] | TAC [3] [U/mg] | GSH ([3]; listed as edaravone injection) | MDA ([3]; listed as edaravone injection) | SOD ([3]; listed as edaravone injection) | TAC ([3]; listed as edaravone injection)
CN(C)CCCN1c2ccccc2CCc2ccccc21 [Imipramine, imipramine hydrochloride] | 24.5 ± 1.5 | significantly increased | 4.03 ± 0.05^ | significantly prolonged | – | – | – | – | – | – | –
CC1=NN(c2ccccc2)C(=O)C1 [Edaravone, edaravone] | – | – | – | – | 59.6 ± 20.6 | 769.5 ± 55.5 | 243.6 ± 0.9 | significantly corrected | significantly corrected | significantly corrected | significantly corrected
